According to the supplement of paper PMC10307832:

Tests used:
Assay in all cases: relative viability (nuclei count vs DMSO), 5 days (fraction); higher = more cells survive
NCI-H1734 = test system: NCI-H1734
How it was run: (§1)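 Lung cancer cell lines were seeded in 1536-well plates and dosed by pin tool the next day, with either a single drug or a fixed anchor-drug dose combined with five library-drug doses (not always all listed) spaced in √10 steps. Five days later, one step fixed the cells and stained their nuclei (final 0.05% Triton X-100, 1% formaldehyde, 1 ug/ml Hoechst), and nuclei were counted on 4× images. Relative viability is the nuclei count in treated wells divided by the count in vehicle wells, and each value is the median of duplicate plates.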

SW 900 = test system: SW 900
How it was run: as §1

LK-2 = test system: LK-2
How it was run: as §1

HARA = test system: HARA
How it was run: as §1

EPLC-272H = test system: EPLC-272H
How it was run: as §1

NCI-H596 = test system: NCI-H596
How it was run: as §1

NCI-H460 = test system: NCI-H460
How it was run: as §1

NCI-H1755 = test system: NCI-H1755
How it was run: as §1

LU99A = test system: LU99A
How it was run: as §1

A-427 = test system: A-427
How it was run: as §1

EMC-BAC-2 = test system: EMC-BAC-2
How it was run: as §1

NCI-H522 = test system: NCI-H522
How it was run: as §1

NCI-H358 = test system: NCI-H358
How it was run: as §1

NCI-H1993 = test system: NCI-H1993
How it was run: as §1

NCI-H1650 = test system: NCI-H1650
How it was run: as §1

NCI-H2405 = test system: NCI-H2405
How it was run: as §1

COR-L 105 = test system: COR-L 105
How it was run: as §1

RERF-LC-KJ = test system: RERF-LC-KJ
How it was run: as §1

NCI-H647 = test system: NCI-H647
How it was run: as §1

EKVX = test system: EKVX
How it was run: as §1

ChaGo-K-1 = test system: ChaGo-K-1
How it was run: as §1

HCC-44 = test system: HCC-44
How it was run: as §1

## Cc1csc(=NC2CCCCC2)n1/N=C/c1ccc(O)c(O)c1O [MIM1] + Cc1cc(Nc2cc(N3CCN(C)CC3)nc(Sc3ccc(NC(=O)C4CC4)cc3)n2)n[nH]1 [Tozasertib] (partner 0.1 µM)
NCI-H1734; first compound 0.2 µM
  relative viability: 0.226
NCI-H1734; first compound 0.6325 µM
  relative viability: 0.261
NCI-H1734; first compound 2 µM
  relative viability: 0.256
NCI-H1734; first compound 6.325 µM
  relative viability: 0.169
NCI-H1734; first compound 20 µM
  relative viability: 0.124
SW 900; first compound 0.2 µM
  relative viability: 0.657
SW 900; first compound 0.6325 µM
  relative viability: 0.722
SW 900; first compound 2 µM
  relative viability: 0.495
SW 900; first compound 6.325 µM
  relative viability: 0.528
SW 900; first compound 20 µM
  relative viability: 0.183
LK-2; first compound 0.2 µM
  relative viability: 0.186
LK-2; first compound 2 µM
  relative viability: 0.161
LK-2; first compound 6.325 µM
  relative viability: 0.166
LK-2; first compound 20 µM
  relative viability: 0.142
HARA; first compound 0.2 µM
  relative viability: 0.101
HARA; first compound 2 µM
  relative viability: 0.0957
HARA; first compound 6.325 µM
  relative viability: 0.112
HARA; first compound 20 µM
  relative viability: 0.0634
EPLC-272H; first compound 0.2 µM
  relative viability: 0.425
EPLC-272H; first compound 0.6325 µM
  relative viability: 0.226
EPLC-272H; first compound 2 µM
  relative viability: 0.219
EPLC-272H; first compound 6.325 µM
  relative viability: 0.372
EPLC-272H; first compound 20 µM
  relative viability: 0.124
NCI-H596; first compound 0.2 µM
  relative viability: 0.929
NCI-H596; first compound 0.6325 µM
  relative viability: 0.931
NCI-H596; first compound 2 µM
  relative viability: 0.817
NCI-H596; first compound 6.325 µM
  relative viability: 0.872
NCI-H596; first compound 20 µM
  relative viability: 0.782
NCI-H460; first compound 0.2 µM
  relative viability: 0.447
NCI-H460; first compound 0.6325 µM
  relative viability: 0.499
NCI-H460; first compound 2 µM
  relative viability: 0.149
NCI-H460; first compound 20 µM
  relative viability: 0.0359
NCI-H1755; first compound 0.2 µM
  relative viability: 0.606
NCI-H1755; first compound 0.6325 µM
  relative viability: 0.629
NCI-H1755; first compound 2 µM
  relative viability: 0.563
NCI-H1755; first compound 6.325 µM
  relative viability: 0.477
NCI-H1755; first compound 20 µM
  relative viability: 0.266
LU99A; first compound 0.2 µM
  relative viability: 0.286
LU99A; first compound 0.6325 µM
  relative viability: 0.274
LU99A; first compound 2 µM
  relative viability: 0.288
LU99A; first compound 6.325 µM
  relative viability: 0.219
LU99A; first compound 20 µM
  relative viability: 0.177
A-427; first compound 0.2 µM
  relative viability: 0.266
A-427; first compound 2 µM
  relative viability: 0.202
A-427; first compound 6.325 µM
  relative viability: 0.249
A-427; first compound 20 µM
  relative viability: 0.164
EMC-BAC-2; first compound 0.2 µM
  relative viability: 0.219
EMC-BAC-2; first compound 0.6325 µM
  relative viability: 0.3
EMC-BAC-2; first compound 2 µM
  relative viability: 0.273
EMC-BAC-2; first compound 6.325 µM
  relative viability: 0.272
EMC-BAC-2; first compound 20 µM
  relative viability: 0.202
NCI-H522; first compound 0.2 µM
  relative viability: 0.622
NCI-H522; first compound 0.6325 µM
  relative viability: 0.572
NCI-H522; first compound 2 µM
  relative viability: 0.484
NCI-H522; first compound 6.325 µM
  relative viability: 0.608
NCI-H522; first compound 20 µM
  relative viability: 0.452
NCI-H358; first compound 0.2 µM
  relative viability: 0.106
NCI-H358; first compound 0.6325 µM
  relative viability: 0.0936
NCI-H358; first compound 2 µM
  relative viability: 0.129
NCI-H358; first compound 6.325 µM
  relative viability: 0.0878
NCI-H358; first compound 20 µM
  relative viability: 0.0838
NCI-H1993; first compound 0.2 µM
  relative viability: 0.57
NCI-H1993; first compound 0.6325 µM
  relative viability: 0.538
NCI-H1993; first compound 2 µM
  relative viability: 0.539
NCI-H1993; first compound 6.325 µM
  relative viability: 0.518
NCI-H1993; first compound 20 µM
  relative viability: 0.433
NCI-H1650; first compound 0.2 µM
  relative viability: 0.529
NCI-H1650; first compound 0.6325 µM
  relative viability: 0.411
NCI-H1650; first compound 2 µM
  relative viability: 0.282
NCI-H1650; first compound 6.325 µM
  relative viability: 0.322
NCI-H1650; first compound 20 µM
  relative viability: 0.133
NCI-H2405; first compound 0.2 µM
  relative viability: 0.767
NCI-H2405; first compound 0.6325 µM
  relative viability: 0.721
NCI-H2405; first compound 2 µM
  relative viability: 0.682
NCI-H2405; first compound 6.325 µM
  relative viability: 0.549
NCI-H2405; first compound 20 µM
  relative viability: 0.537
COR-L 105; first compound 0.2 µM
  relative viability: 0.573
COR-L 105; first compound 0.6325 µM
  relative viability: 0.35
COR-L 105; first compound 2 µM
  relative viability: 0.341
COR-L 105; first compound 6.325 µM
  relative viability: 0.354
COR-L 105; first compound 20 µM
  relative viability: 0.338
RERF-LC-KJ; first compound 0.2 µM
  relative viability: 0.507
RERF-LC-KJ; first compound 0.6325 µM
  relative viability: 0.503
RERF-LC-KJ; first compound 2 µM
  relative viability: 0.317
RERF-LC-KJ; first compound 6.325 µM
  relative viability: 0.231
RERF-LC-KJ; first compound 20 µM
  relative viability: 0.224
NCI-H647; first compound 0.2 µM
  relative viability: 0.262
NCI-H647; first compound 0.6325 µM
  relative viability: 0.27
NCI-H647; first compound 6.325 µM
  relative viability: 0.247
NCI-H647; first compound 20 µM
  relative viability: 0.11
EKVX; first compound 0.2 µM
  relative viability: 0.474
EKVX; first compound 0.6325 µM
  relative viability: 0.357
EKVX; first compound 2 µM
  relative viability: 0.355
EKVX; first compound 6.325 µM
  relative viability: 0.28
EKVX; first compound 20 µM
  relative viability: 0.337
ChaGo-K-1; first compound 0.2 µM
  relative viability: 0.246
ChaGo-K-1; first compound 0.6325 µM
  relative viability: 0.232
ChaGo-K-1; first compound 2 µM
  relative viability: 0.204
ChaGo-K-1; first compound 6.325 µM
  relative viability: 0.196
ChaGo-K-1; first compound 20 µM
  relative viability: 0.155
HCC-44; first compound 0.2 µM
  relative viability: 0.962
HCC-44; first compound 0.6325 µM
  relative viability: 1.1
HCC-44; first compound 2 µM
  relative viability: 0.387
HCC-44; first compound 6.325 µM
  relative viability: 0.584
HCC-44; first compound 20 µM
  relative viability: 0.184
